The results in this text go back to patent US12509444B2, “Compounds and methods for CD73 modulation and indications therefor” (Plexxikon Inc., priority 2019, dated 2025).

One assay deals with T1, human CD73 (Homo sapiens, UniProt P21589).
T1 construct: expressed in transfected cells
T1 sequence (P21589 27-549): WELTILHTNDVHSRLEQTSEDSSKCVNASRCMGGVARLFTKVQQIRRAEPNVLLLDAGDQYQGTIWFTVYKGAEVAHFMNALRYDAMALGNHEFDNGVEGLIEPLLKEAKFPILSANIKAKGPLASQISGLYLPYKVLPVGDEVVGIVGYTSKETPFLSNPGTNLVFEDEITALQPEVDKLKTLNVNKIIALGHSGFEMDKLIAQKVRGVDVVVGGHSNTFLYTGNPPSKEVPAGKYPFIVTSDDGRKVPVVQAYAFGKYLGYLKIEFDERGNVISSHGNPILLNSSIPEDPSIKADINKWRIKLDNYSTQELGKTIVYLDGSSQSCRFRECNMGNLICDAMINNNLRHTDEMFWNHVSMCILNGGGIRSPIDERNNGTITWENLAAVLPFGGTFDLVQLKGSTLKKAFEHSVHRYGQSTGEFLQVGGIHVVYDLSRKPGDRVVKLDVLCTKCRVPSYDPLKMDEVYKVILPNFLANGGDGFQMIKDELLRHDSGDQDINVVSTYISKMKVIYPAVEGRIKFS
Put plainly: Inhibitor activity against CD73 in cell based assay (CD73 expressing CHO-K1 cells). As to conditions: CHO-K1 cells expressing human CD73, 150 μM AMP, 4 hours of incubation; read-out: CHO-K1 CELL VARIANT: CD73 IC50. The gist of the method: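 Residual supernatant AMP was quantified via CellTiter-Glo luminescence (1 μM ATP added, 30 min, room temperature) after a 4 h exposure of human CD73-expressing CHO-K1 cells to 150 μM AMP plus compound, top final 10 μM, 8 points. IC50 came from nonlinear regression of percent inhibition.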

Assay [1] deals with T2, Human CD73 (amino acid residues 27-549) (Homo sapiens, UniProt P21589).
T2 construct: Human CD73 (amino acid residues 27-549); His tag (N); made in house; host or cells: E. coli
T2 sequence (P21589 27-549): T1 sequence (P21589 27-549)
Put plainly: CD73 enzymatic assay (luciferase-based indirect assay, CellTiter-Glo). As to conditions: 0.4 nM CD73, 150 μM AMP, 1 hour at room temperature. In kind it is biochemical. The gist of the method:
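Residual AMP inhibits luciferase, so luminescence reports CD73 turnover; read with CellTiter-Glo 2.0 plus 1 μM final ATP, 30 min. Reaction used 0.4 nM N-His CD73 (27-549, E. coli), 150 μM AMP, HEPES pH 7.4 with Tween 20, 1 h at room temperature. IC50 fitted by nonlinear regression.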

Each structure is given as a SMILES string.

`O=C(NC1C2CCC1CC(F)(F)C2)O[C@@H]1CCN(c2cn[nH]c(=O)c2Cl)C1` (stereo partly drawn) [P-0440, (R)-1-(5-chloro-6-oxo-1,6-dihydropyridazin-4-yl)pyrrolidin-3-yl (3,3-difluorobicyclo[3.2.1]octan-8-yl)carbamate]: the IC50 (on human CD73; in assay [1]) was 0.001 to 10 µM each time.
For `O=C(NC1CC2C(C1)C2(F)F)O[C@@H]1CCN(c2cn[nH]c(=O)c2Cl)C1` (stereo partly drawn) [P-0441, (R)-1-(5-chloro-6-oxo-1,6-dihydropyridazin-4-yl)pyrrolidin-3-yl (6,6-difluorobicyclo[3.1.0]hexan-3-yl)carbamate], the half-maximal inhibitory concentration (IC50) (on human CD73; in assay [1]) was 0.001 to 10 µM each time.
For the compound `COc1ccc(CC(=O)N2CCC(NC(=O)O[C@@H]3CCN(c4cn[nH]c(=O)c4Cl)C3)CC2)cc1` [P-0442, (R)-1-(5-chloro-6-oxo-1,6-dihydropyridazin-4-yl)pyrrolidin-3-yl (1-(2-(4-methoxyphenyl)acetyl)piperidin-4-yl)carbamate], the 50% inhibitory concentration (IC50) (at human CD73; in assay [1]) was 0.001 to 10 µM each time.
For `O=C(NC1CCN(C(=O)Cc2ccc(F)cc2)CC1)O[C@@H]1CCN(c2cn[nH]c(=O)c2Cl)C1` [P-0443, (R)-1-(5-chloro-6-oxo-1,6-dihydropyridazin-4-yl)pyrrolidin-3-yl (1-(2-(4-fluorophenyl)acetyl)piperidin-4-yl)carbamate], the IC50 (at human CD73; in assay [1]) was 0.001 to 10 µM in each case.
`O=C(NC1CCN(C(=O)Cc2ccc(Cl)c(F)c2)CC1)O[C@@H]1CCN(c2cn[nH]c(=O)c2Cl)C1` [P-0444, (R)-1-(5-chloro-6-oxo-1,6-dihydropyridazin-4-yl)pyrrolidin-3-yl (1-(2-(4-chloro-3-fluorophenyl)acetyl)piperidin-4-yl)carbamate]: the 50% inhibitory concentration (IC50) (at human CD73; in assay [1]) was 0.001 to 10 µM throughout.
Regarding `O=C(NC1CCN(C(=O)Cc2ccc(F)c(Cl)c2)CC1)O[C@@H]1CCN(c2cn[nH]c(=O)c2Cl)C1` [P-0445, (R)-1-(5-chloro-6-oxo-1,6-dihydropyridazin-4-yl)pyrrolidin-3-yl (1-(2-(3-chloro-4-fluorophenyl)acetyl)piperidin-4-yl)carbamate], the IC50 (on human CD73; in assay [1]) was 0.001 to 10 µM throughout.
Turning to `O=C(NC1CC2CCC2C1)O[C@@H]1CCN(c2cn[nH]c(=O)c2Cl)C1` (stereo partly drawn) [P-0446, (R)-1-(5-chloro-6-oxo-1,6-dihydropyridazin-4-yl)pyrrolidin-3-yl bicyclo[3.2.0]heptan-3-ylcarbamate], the IC50 (at human CD73; in assay [1]) was 0.001 to 10 µM each time.
Consider `O=C(N[C@@H]1CCC[C@H]1F)O[C@@H]1CCN(c2cn[nH]c(=O)c2Cl)C1` [P-0447, (R)-1-(5-chloro-6-oxo-1,6-dihydropyridazin-4-yl)pyrrolidin-3-yl ((1R,2R)-2-fluorocyclopentyl)carbamate], for which the 50% inhibitory concentration (IC50) (at human CD73; in assay [1]) was 0.001 to 10 µM each time.
For `O=C(NC12CCC(F)(CC1)C2)O[C@@H]1CCN(c2cn[nH]c(=O)c2Cl)C1` [P-0448, (R)-1-(5-chloro-6-oxo-1,6-dihydropyridazin-4-yl)pyrrolidin-3-yl (4-fluorobicyclo[2.2.1]heptan-1-yl)carbamate], the IC50 (on human CD73; in assay [1]) was 0.001 to 10 µM throughout.
On to `O=C(NC1CC2CC2C1)O[C@@H]1CCN(c2cnn(CCO)c(=O)c2Cl)C1` (stereo partly drawn) [P-0449, (R)-1-(5-chloro-1-(2-hydroxyethyl)-6-oxo-1,6-dihydropyridazin-4-yl)pyrrolidin-3-yl bicyclo[3.1.0]hexan-3-ylcarbamate], for which the IC50 (on human CD73; in assay [1]) was 0.001 to 10 µM in each case.
Take `CC1CCCC1NC(=O)O[C@@H]1CCN(c2cnn(CCO)c(=O)c2Cl)C1` (stereo partly drawn) [P-0450, (R)-1-(5-chloro-1-(2-hydroxyethyl)-6-oxo-1,6-dihydropyridazin-4-yl)pyrrolidin-3-yl (2-methylcyclopentyl)carbamate]: the IC50 (on human CD73; in assay [1]) was 0.001 to 10 µM each time.

As usually defined, the IC50 is the concentration that gives 50% inhibition.
